Among the data in US8486951B2 (Deciphera Pharmaceuticals, LLC, priority 2008, dated 2013) are IC50 values, retold here.

The structures appear in SMILES notation.

Common to all, as to type: biochemical
Assay [1] deals with T1, c-MET kinase (Seq. ID no. 2) (Homo sapiens, UniProt P08581).
T1 construct: purchased Invitrogen PV3143
The assay is described as follows: c-MET Kinase Assay (ADP production, pyruvate kinase/lactate dehydrogenase coupled). Particulars: read-out: cMET Enzyme Assay. The method, then: In this assay, the oxidation of NADH (thus the decrease at A340 nm) was continuously monitored spectrophometrically. […] Test compounds were incubated with C-Met (Seq. ID no. 2) and other reaction reagents at 22° C. for 0.5 h before ATP (100 μM) was added to start the reaction. The absorption at 340 nm was monitored continuously for 2 hours at 30° C. on Polarstar Optima plate reader (BMG). The reaction rate was calculated using the 1.0 to 2.0 h time frame. Percent inhibition was obtained by comparison of reaction rate with that of a control (i.e. with no test compound). IC50 values were calculated from a series of percent inhibition values determined at a range of inhibitor concentrations using software routines as implemented in the GraphPad Prism software package.

Assay [2] addresses KDR kinase (Seq ID No. 3) (Homo sapiens, UniProt P35968, DEL940-989/E990V). Put plainly: KDR Kinase Assay (assays K1, K2, K3). Particulars: assay variant K1, K2 or K3 not stated; read-out: KDR Enzyme Assay.
A further assay addresses T2, FMS kinase (Homo sapiens, UniProt P07333).
T2 construct: purchased Invitrogen or Millipore
The assay is described as follows: FMS Kinase Assay. Particulars: read-out: FMS Enzyme Assay. The method, then:
(§1) In this assay, the oxidation of NADH (thus the decrease at A340 nm) was continuously monitored spectrophometrically. The reaction mixture (100 μl) contained FMS (purchased from Invitrogen or Millipore, 6 nM), polyE4Y (1 mg/ml), MgCl2 (10 mM), pyruvate kinase (4 units), lactate dehydrogenase (0.7 units), phosphoenol pyruvate (1 mM) and NADH (0.28 mM) and ATP (500 μM) in a 90 mM Tris buffer containing 0.2% octyl-glucoside and 1% DMSO, pH 7.5. The inhibition reaction was started by mixing serial diluted test compound with the above reaction mixture. The absorption at 340 nm was monitored continuously for 4 hours at 30° C. on a Polarstar Optima or Synergy 2 plate reader. The reaction rate was calculated using the 2 to 3 h time frame. Percent inhibition was obtained by comparison of reaction rate with that of a control (i.e. with no test compound). IC50 values were calculated from a series of percent inhibition values determined at a range of inhibitor concentrations using software routines as implemented in the GraphPad Prism software package.

The target of a further assay is T3, PDGFRα kinase (Homo sapiens, UniProt P16234).
T3 construct: purchased Invitrogen
The assay is described as follows: PDGFRα Kinase Assay. Particulars: read-out: PDGFRa Enzyme Assay. The protocol: as §1, with “Activity of PDGFRα kinase was determined by following the production of ADP from the kinase reaction through coupling with the pyruvate kinase/lactate dehydrogenase system. In” for “In”, “PDGFRα (Invitrogen, 10” for “FMS (purchased from Invitrogen or Millipore, 6”

Another assay concerns the target T4, PDGFRβ (Homo sapiens, UniProt P09619).
T4 construct: purchased Invitrogen
The assay is described as follows: PDGFRβ Kinase Assay. Particulars: read-out: PDGFRb Enzyme Assay.

Assay [3] deals with T5, c-KIT kinase (Seq. ID no. 1) (Homo sapiens, UniProt P10721).
T5 construct: purchased ProQinase
Put plainly: c-KIT kinase Assay (ADP production, pyruvate kinase/lactate dehydrogenase coupled). Particulars: read-out: cKIT Enzyme Assay. The method, then: In this assay, the oxidation of NADH (thus the decrease at A340 nm) was continuously monitored spectrophometrically. […] The absorption at 340 nm was monitored continuously for 0.5 hours at 30° C. on Polarstar Optima plate reader (BMG). The reaction rate was calculated using the 0 to 0.5 h time frame. Percent inhibition was obtained by comparison of reaction rate with that of a control (i.e. with no test compound). IC50 values were calculated from a series of percent inhibition values determined at a range of inhibitor concentrations using software routines as implemented in the GraphPad Prism software package.

T2 sequence (P07333 20-972): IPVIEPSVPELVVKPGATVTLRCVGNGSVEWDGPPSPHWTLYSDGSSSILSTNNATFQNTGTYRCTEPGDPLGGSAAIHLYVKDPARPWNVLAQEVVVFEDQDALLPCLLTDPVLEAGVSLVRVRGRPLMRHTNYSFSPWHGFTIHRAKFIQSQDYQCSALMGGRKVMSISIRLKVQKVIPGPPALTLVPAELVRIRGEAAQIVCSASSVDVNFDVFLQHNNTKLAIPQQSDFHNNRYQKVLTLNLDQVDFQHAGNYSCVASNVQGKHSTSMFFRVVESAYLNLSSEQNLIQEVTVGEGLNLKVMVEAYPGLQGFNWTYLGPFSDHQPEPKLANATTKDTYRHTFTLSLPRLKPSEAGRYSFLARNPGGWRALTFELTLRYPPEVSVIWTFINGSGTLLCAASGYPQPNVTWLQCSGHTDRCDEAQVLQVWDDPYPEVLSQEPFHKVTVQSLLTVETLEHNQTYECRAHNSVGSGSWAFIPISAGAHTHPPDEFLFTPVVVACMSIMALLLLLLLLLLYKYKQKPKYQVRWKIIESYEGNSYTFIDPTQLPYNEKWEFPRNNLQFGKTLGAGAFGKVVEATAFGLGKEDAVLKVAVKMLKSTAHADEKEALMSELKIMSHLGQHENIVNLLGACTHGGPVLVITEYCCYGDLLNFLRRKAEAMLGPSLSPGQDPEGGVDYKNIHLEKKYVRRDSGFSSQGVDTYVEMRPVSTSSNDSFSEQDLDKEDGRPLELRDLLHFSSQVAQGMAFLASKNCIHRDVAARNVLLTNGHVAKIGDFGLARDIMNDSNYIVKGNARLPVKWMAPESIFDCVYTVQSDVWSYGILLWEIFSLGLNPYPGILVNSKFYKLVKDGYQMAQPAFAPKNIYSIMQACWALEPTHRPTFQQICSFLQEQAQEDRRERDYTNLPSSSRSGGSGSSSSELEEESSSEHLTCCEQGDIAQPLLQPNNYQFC
T1 sequence (P08581 with tags, fused parts or gaps): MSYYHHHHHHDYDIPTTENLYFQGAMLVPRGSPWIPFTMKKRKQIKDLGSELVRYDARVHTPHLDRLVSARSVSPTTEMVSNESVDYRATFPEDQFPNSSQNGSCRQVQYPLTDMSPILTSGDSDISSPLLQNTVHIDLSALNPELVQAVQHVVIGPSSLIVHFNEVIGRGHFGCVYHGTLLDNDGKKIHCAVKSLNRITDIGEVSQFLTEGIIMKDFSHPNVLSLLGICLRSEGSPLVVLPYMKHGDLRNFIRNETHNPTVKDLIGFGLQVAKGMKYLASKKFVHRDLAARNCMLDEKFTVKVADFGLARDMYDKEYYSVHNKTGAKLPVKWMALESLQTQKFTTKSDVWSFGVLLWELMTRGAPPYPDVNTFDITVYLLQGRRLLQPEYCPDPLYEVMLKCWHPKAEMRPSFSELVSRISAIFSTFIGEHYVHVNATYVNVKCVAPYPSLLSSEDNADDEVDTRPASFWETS
Sequence of KDR kinase (Seq ID No. 3) (P35968 with tags, fused parts or gaps DEL940-989/E990V): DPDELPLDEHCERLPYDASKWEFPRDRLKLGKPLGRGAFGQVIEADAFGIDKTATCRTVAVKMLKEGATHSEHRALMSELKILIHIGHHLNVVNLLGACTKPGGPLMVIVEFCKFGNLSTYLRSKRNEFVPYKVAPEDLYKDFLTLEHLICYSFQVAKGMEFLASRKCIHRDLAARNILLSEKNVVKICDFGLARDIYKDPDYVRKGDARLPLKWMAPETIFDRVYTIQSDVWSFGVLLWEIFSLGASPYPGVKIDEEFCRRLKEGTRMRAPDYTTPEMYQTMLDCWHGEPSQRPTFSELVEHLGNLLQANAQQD
T4 sequence (P09619 33-1106): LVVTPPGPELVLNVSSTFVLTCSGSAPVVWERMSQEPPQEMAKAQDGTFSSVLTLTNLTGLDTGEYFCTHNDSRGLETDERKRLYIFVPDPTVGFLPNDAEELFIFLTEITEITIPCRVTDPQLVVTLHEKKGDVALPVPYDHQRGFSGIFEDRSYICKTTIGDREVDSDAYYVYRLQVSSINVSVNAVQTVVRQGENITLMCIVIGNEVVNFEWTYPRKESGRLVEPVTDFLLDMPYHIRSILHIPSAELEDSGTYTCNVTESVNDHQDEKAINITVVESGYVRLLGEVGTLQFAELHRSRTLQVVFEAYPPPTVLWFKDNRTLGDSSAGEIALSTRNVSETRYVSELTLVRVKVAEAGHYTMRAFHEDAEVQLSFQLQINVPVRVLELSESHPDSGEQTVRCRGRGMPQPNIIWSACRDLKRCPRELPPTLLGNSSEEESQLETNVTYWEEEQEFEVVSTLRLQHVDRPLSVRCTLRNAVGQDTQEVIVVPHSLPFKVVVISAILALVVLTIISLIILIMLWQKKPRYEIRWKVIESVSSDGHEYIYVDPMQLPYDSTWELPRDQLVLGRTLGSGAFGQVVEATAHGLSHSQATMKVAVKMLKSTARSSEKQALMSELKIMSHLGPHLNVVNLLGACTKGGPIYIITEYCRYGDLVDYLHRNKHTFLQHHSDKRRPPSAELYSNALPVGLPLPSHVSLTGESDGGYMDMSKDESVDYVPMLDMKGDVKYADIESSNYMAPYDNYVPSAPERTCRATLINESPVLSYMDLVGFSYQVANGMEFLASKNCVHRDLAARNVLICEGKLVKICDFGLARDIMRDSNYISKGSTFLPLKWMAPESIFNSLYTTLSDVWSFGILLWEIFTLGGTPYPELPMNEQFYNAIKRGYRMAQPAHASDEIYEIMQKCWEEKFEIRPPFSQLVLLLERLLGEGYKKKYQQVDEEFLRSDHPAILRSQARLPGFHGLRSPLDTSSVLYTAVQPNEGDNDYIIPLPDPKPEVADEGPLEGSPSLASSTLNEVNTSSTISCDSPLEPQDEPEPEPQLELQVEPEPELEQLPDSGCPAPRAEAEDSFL
T3 sequence (P16234 24-1089): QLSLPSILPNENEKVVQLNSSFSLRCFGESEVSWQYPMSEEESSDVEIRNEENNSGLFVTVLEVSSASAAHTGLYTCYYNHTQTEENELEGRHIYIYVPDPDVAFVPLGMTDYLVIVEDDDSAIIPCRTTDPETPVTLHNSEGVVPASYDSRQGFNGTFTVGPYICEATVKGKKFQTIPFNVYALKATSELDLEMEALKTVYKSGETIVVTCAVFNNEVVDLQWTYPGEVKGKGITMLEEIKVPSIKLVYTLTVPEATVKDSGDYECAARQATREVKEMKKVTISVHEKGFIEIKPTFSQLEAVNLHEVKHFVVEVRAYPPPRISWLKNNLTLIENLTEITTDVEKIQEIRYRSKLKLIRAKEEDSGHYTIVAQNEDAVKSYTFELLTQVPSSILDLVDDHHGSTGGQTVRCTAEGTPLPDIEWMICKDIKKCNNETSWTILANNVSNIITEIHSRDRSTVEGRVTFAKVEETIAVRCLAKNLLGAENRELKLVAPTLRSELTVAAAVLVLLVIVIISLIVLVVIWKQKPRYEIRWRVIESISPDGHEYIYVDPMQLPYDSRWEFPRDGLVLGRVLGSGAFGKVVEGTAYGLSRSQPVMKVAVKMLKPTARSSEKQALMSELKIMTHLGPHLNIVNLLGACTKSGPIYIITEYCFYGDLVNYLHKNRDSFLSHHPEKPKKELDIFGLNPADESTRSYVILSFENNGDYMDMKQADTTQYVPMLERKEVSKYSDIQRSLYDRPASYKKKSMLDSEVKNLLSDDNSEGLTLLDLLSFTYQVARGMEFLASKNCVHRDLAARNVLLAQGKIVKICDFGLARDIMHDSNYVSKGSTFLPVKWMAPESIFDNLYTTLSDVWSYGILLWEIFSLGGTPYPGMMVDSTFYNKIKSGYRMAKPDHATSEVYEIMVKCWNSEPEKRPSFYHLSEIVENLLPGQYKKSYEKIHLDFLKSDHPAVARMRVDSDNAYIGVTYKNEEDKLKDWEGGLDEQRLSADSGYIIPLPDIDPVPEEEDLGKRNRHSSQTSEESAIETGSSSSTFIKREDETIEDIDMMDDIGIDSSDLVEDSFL
T5 sequence (P10721 with tags, fused parts or gaps): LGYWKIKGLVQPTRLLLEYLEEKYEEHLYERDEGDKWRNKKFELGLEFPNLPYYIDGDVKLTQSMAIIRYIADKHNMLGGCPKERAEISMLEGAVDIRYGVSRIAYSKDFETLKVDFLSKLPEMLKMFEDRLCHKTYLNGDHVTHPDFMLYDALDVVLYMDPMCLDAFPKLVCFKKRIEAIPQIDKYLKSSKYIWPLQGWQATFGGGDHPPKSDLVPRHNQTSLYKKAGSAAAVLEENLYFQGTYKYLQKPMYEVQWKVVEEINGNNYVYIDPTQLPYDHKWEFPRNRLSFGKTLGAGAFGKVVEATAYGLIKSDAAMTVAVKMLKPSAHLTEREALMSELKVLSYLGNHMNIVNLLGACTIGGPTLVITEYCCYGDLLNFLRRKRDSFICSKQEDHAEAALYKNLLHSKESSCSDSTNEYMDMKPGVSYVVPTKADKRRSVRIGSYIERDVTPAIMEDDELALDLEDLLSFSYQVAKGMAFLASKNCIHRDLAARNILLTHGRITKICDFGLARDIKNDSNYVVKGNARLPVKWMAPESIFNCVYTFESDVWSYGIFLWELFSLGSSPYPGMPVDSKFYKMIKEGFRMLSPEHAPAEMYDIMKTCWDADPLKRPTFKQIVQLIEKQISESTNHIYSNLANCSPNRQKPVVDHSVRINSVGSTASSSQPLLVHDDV

With `Cn1cc(-c2cc(Oc3ccc(NC(=O)C4(C(=O)Nc5ccc(F)cc5Cl)CC4)c(F)c3)ccn2)cn1` [Example 29, N-(2-chloro-4-fluorophenyl)-N′-(2-fluoro-4-(2-(1-methyl-1H-pyrazol-4-yl)pyridin-4-yloxy)phenyl)cyclopropane-1,1-dicarboxamide], the IC50 in assay [1] was < 2000 nM.

As to `Cc1cc(F)c(NC(=O)C2(C(=O)Nc3ccc(F)cc3)CC2)cc1Oc1nccc(-c2cnn(C)c2)n1` [Example 52, N-(2-fluoro-4-methyl-5-(4-(1-methyl-1H-pyrazol-4-yl)pyrimidin-2-yloxy)phenyl)-N′-(4-fluorophenyl)cyclopropane-1,1-dicarboxamide], the IC50 was < 10 µM in assay [2], < 10000 nM in assay [1] and < 10 µM at FMS kinase.

Take `Cc1cc(F)c(NC(=O)C2(C(=O)Nc3ccc(F)cc3)CC2)cc1Oc1nccc(-c2cn[nH]c2)n1` [Example 54, N-(5-(4-(1H-pyrazol-4-yl)pyrimidin-2-yloxy)-2-fluoro-4-methylphenyl)-N′-(4-fluorophenyl)cyclopropane-1,1-dicarboxamide]: the IC50 in assay [2] is < 10 µM; in assay [1], < 10000 nM; on FMS kinase it was < 10 µM.

Consider `Cn1cc(-c2cc(Oc3ccc(NC(=O)C4(C(=O)Nc5ccc(C#N)cc5)CC4)c(F)c3)ccn2)cn1` [Example 28, N-(4-cyanophenyl)-N′-(2-fluoro-4-(2-(1-methyl-1H-pyrazol-4-yl)pyridin-4-yloxy)phenyl)cyclopropane-1,1-dicarboxamide], for which the IC50 in assay [1] was < 10000 nM.

As for `Cn1cc(-c2cc(Oc3ccc(NC(=O)C4(C(=O)Nc5ccc(F)c(C#N)c5)CC4)c(F)c3)ccn2)cn1` [Example 26, N-(3-cyano-4-fluorophenyl)-N′-(2-fluoro-4-(2-(1-methyl-1H-pyrazol-4-yl)pyridin-4-yloxy)phenyl)cyclopropane-1,1-dicarboxamide], the IC50 in assay [1] was < 10000 nM.

On to `O=C(Nc1ccc(F)cc1)C1(C(=O)Nc2ccc(Oc3ccnc(-c4c[nH]nn4)c3)cc2F)CC1` [Example 60, N-(4-(2-(1H-1,2,3-triazol-4-yl)pyridin-4-yloxy)-2-fluorophenyl)-N′-(4-fluorophenyl)cyclopropane-1,1-dicarboxamide], for which the IC50 in assay [1] was < 2000 nM.

Turning to `C[C@H](NC(=O)C1(C(=O)Nc2ccc(Oc3ccnc(-c4cnn(C)c4)c3)c(F)c2)CC1)c1ccc(F)cc1` [Example 33, N-(3-fluoro-4-(2-(1-methyl-1H-pyrazol-4-yl)pyridin-4-yloxy)phenyl)-N′-((S)-1-(4-fluorophenyl)ethyl)cyclopropane-1,1-dicarboxamide], the IC50 in assay [1] is < 2000 nM.

`Cn1cc(-c2cc(Oc3ccc(NC(=O)C4(C(=O)NCc5ccccc5)CC4)c(F)c3F)ccn2)cn1` [Example 3, N-benzyl-N′-(2,3-difluoro-4-(2-(1-methyl-1H-pyrazol-4-yl)pyridin-4-yloxy)phenyl)cyclopropane-1,1-dicarboxamide]: the IC50 was < 2 µM in assay [2], < 2000 nM on PDGFRα kinase and < 10000 nM on PDGFRβ.

As for `Cn1cc(-c2cc(Oc3ccc(NC(=O)C4(C(=O)Nc5cccs5)CC4)c(F)c3)ccn2)cn1` [Example 35, N-(2-fluoro-4-(2-(1-methyl-1H-pyrazol-4-yl)pyridin-4-yloxy)phenyl)-N′-(thiophen-2-yl)cyclopropane-1,1-dicarboxamide], the IC50 in assay [1] is < 2000 nM.

In the case of `CN(C(=O)C1(C(=O)Nc2ccc(F)cc2)CC1)c1ccc(Oc2ccnc(-c3cnn(C)c3)c2)c(F)c1` [Example 58, N-(3-fluoro-4-(2-(1-methyl-1H-pyrazol-4-yl)pyridin-4-yloxy)phenyl)-N′-(4-fluorophenyl)-N-methylcyclopropane-1,1-dicarboxamide], the IC50 in assay [2] was < 10 µM; in assay [1] it was < 10000 nM; on PDGFRα kinase, < 10000 nM; in assay [3], < 10 µM.

Consider `Cn1cc(-c2cc(Oc3ccc(NC(=O)C4(C(=O)Nc5ccc(F)c(F)c5)CC4)c(F)c3)ccn2)cn1` [Example 24, N-(3,4-difluorophenyl)-N′-(2-fluoro-4-(2-(1-methyl-1H-pyrazol-4-yl)pyridin-4-yloxy)phenyl)cyclopropane-1,1-dicarboxamide], for which the IC50 in assay [1] was < 2000 nM.

Regarding `Cn1cc(-c2cc(Oc3ccc(NC(=O)C4(C(=O)Nc5ccc(F)cc5F)CC4)c(F)c3)ccn2)cn1` [Example 27, N-(2,4-difluorophenyl)-N′-(2-fluoro-4-(2-(1-methyl-1H-pyrazol-4-yl)pyridin-4-yloxy)phenyl)cyclopropane-1,1-dicarboxamide], the IC50 in assay [1] was < 2000 nM.

As to `Cn1cc(-c2cc(Oc3ccc(NC(=O)C4(C(=O)Nc5ccc(C(F)(F)F)cc5)CC4)c(F)c3)ccn2)cn1` [Example 25, N-(2-fluoro-4-(2-(1-methyl-1H-pyrazol-4-yl)pyridin-4-yloxy)phenyl)-N′-(4-(trifluoromethyl)phenyl)cyclopropane-1,1-dicarboxamide], the IC50 in assay [1] is < 2000 nM.

As to `CC[C@H](NC(=O)C1(C(=O)Nc2ccc(Oc3ccnc(-c4cnn(C)c4)c3)c(F)c2)CC1)c1ccc(F)cc1` [Example 34, N-(3-fluoro-4-(2-(1-methyl-1H-pyrazol-4-yl)pyridin-4-yloxy)phenyl)-N′-((S)-1-(4-fluorophenyl)propyl)cyclopropane-1,1-dicarboxamide], the IC50 in assay [1] is < 2000 nM.

`Cn1cc(-c2ccnc(Oc3ccc(F)c(NC(=O)C4(C(=O)Nc5ccc(F)cc5)CC4)c3)n2)cn1` [Example 53, N-(2-fluoro-5-(4-(1-methyl-1H-pyrazol-4-yl)pyrimidin-2-yloxy)phenyl)-N′-(4-fluorophenyl)cyclopropane-1,1-dicarboxamide]: the IC50 in assay [2] was < 10 µM; in assay [1], < 10000 nM; on FMS kinase it was < 10 µM.

With `Cn1cc(-c2cc(Oc3ccc(NC(=O)C4(C(=O)Nc5ccc(F)cc5)CC4)c(F)c3F)ccn2)cn1` [Example 1, N-(2,3-difluoro-4-(2-(1-methyl-1H-pyrazol-4-yl)pyridin-4-yloxy)phenyl)-N′-(4-fluorophenyl)cyclopropane-1,1-dicarboxamide], the IC50 is < 2 µM in assay [2]; < 200 nM in assay [1]; < 200 nM on PDGFRα kinase; < 2000 nM at PDGFRβ; < 2 µM in assay [3].

In the case of `COC[C@H](NC(=O)C1(C(=O)Nc2ccc(Oc3ccnc(-c4cnn(C)c4)c3)c(F)c2)CC1)c1ccc(F)cc1` [Example 36, N-(3-fluoro-4-(2-(1-methyl-1H-pyrazol-4-yl)pyridin-4-yloxy)phenyl)-N′((R)-1-(4-fluorophenyl)-2-methoxyethyl)cyclopropane-1,1-dicarboxamide], in assay [1], the IC50 was < 2000 nM.

As to `O=C(Cc1ccc(F)cc1)NC(=O)Nc1ccc(Oc2ccnc(-c3nc(C(F)(F)F)c[nH]3)c2)cc1` [Example 39, 1-(2-(4-fluorophenyl)acetyl)-3-(4-(2-(4-(trifluoromethyl)-1,1-imidazol-2-yl)pyridin-4-yloxy)phenyl)urea], the IC50 is < 200 nM at PDGFRα kinase and < 2000 nM at PDGFRβ.
